Data reported in patent US12077555B2, “STAT degraders and uses thereof” (Kymera Therapeutics, Inc., priority 2019, dated 2024).
Read-outs that look alike come from different tables or passages of the source.

Biological target: STAT3 (Homo sapiens, UniProt P40763)
Assay: Quantitation of STAT3 degradation in A549 cells by Western blot
Type: cell-based
Parameters: expressed in transfected cells; host or cells: A549
Experimental: Degradation of total cellular STAT3 protein in A549 was quantitatively measured using SDS-PAGE and Western blot analysis. A549 cells (5×10^5 cells/well, 2 mL) were seeded into 6-well plates and were incubated in the incubator under 5% CO2 overnight to reach ˜80% confluency. The next day, the culture medium was changed with 1 ml fresh media. Then, 1 mL of media containing 2× compound solution was added into the well to make the final concentration of 30 μM, 10 μM, 3 μM, 1 μM, 0.3 μM and 0 μM (DMSO). The media was thoroughly mixed and incubated for 24 hours at 37° C. under 5% CO2. Then, the culture media was removed from the assay plates and the cells were washed with ice-cold PBS twice. To prepare cell lysates, 200 ul pre-chilled RIPA lysis buffer (Boston BioProducts BP-115D) with protease/phosphatase inhibitor (Roche 05892791001/Roche 04906837001) was added directly into the well to lyse the cells for 20 minutes on ice. The cell lysates were then transferred to centrifuge tubes. Insoluble part of lysates was removed by centrifuging the lysates at 13000 rpm for 20 minutes. The supernatant was then collected and mixed with 5× loading buffer (Beyotime Bio P0015) to make the final samples for SDS-PAGE analysis. The samples were heated at 100° C. for 10 minutes and cool to room temperature before centrifuging at 13000 rpm for 20 minutes. To analyze the samples by SDS-PAGE, 10 ul samples were loaded onto SDS-PAGE gel (Novex, WG1403BOX) and the SDS-PAGE gel was run for 20 minutes at 80 V, then at 120 V for 1.5 hours. The SDS-PAGE gel was then transferred to nitrocellulose membrane using the wet-transfer method at 250 mA for 1.5 hours. The membrane was then blocked with LI-COR blocking buffer (LI-COR, 927-50000) for 1 hour and was probed with primary antibody (mouse anti-STAT3 (124H6) (CST #91395) 1:2000 or mouse anti-beta-Actin (8H10D10) (CST #3700) 1:10000) at 4° C. overnight. The membrane was then washed three times with TBST buffer and probed with secondary antibody (anti-mouse IgG (LI-COR, 926-68070), 1:5000) for 1 hour at room temperature. The membrane was then scanned on a LI-COR Odyssey instrument and was quantified using Image Studio Version 5.2. Concentration at 50% degradation (DC50) was calculated by fitting dose dependent degradation data using a sigmoidal equation using GraphPad Prism Version 8.0.

[1] = read-out: A549 DC50, 24 hours, tested up to 30 μM or 10 μM
[2] = 24 hours, tested up to 30 μM or 10 μM, read-out: A549 DC50

Sequence of STAT3 (P40763 whole entry): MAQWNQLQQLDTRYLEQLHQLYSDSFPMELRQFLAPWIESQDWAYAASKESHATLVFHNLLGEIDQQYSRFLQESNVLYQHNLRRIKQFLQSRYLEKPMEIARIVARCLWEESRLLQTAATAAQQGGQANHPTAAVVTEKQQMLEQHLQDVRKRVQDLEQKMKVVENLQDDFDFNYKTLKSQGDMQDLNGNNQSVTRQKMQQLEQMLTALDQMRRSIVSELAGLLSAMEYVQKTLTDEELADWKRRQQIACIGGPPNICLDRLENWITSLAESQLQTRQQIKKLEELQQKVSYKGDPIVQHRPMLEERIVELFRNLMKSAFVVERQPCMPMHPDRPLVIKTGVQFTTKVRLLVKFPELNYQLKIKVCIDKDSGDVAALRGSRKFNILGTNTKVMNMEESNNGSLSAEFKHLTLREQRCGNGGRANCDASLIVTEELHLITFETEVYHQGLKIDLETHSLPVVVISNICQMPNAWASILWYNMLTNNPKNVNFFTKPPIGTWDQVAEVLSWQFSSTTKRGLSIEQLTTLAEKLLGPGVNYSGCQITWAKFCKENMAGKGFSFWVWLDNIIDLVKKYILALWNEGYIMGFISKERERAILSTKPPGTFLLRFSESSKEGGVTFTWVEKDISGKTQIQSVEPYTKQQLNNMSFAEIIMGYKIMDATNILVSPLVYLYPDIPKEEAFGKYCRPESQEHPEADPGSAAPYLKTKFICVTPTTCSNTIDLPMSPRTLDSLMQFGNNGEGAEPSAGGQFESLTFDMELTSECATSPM

Row | Compound | DC50 [1] [µM] | DC50 [2] [µM]
1 | C/C(=C\C(=O)N[C@H]1CCc2cccc3c2N(C1=O)[C@H](C(=O)NC(CCC(N)=O)[C@@H](C)OCc1ccc(CCCOCCCCCc2ccc4c(c2)n(C)c(=O)n4C2CCC(=O)NC2=O)cc1)C3)c1ccc(C(F)(F)P(=O)(OCOC(=O)C(C)(C)C)OCOC(=O)C(C)(C)C)cc1 (stereo partly drawn) [Compound I-36, [([4-[(1E)-1-[[(2S,11S)-2-[[(3S,4R)-1-carbamoyl-4-([4-[3-([5-[1-(2,6-dioxopiperidin-3-yl)-3-methyl-2-oxo-1,3-benzodiazol-5-yl]pentyl]oxy)propyl]phenyl]methoxy)pentan-3-yl]carbamoyl]-12-oxo-1-azatricyclo[6.4.1.0^[4,13]]trideca-4(13),5,7-trien-11-yl]carbamoyl]prop-1-en-2-yl]phenyl]difluoromethyl([(2,2-dimethylpropanoyl)oxy]methoxy)phosphoryl)oxy]methyl 2,2-dimethylpropanoate] | > 10 | 
2 | C/C(=C\C(=O)N[C@H]1CCc2cccc3c2N(C1=O)[C@H](C(=O)NC(CCC(N)=O)[C@@H](C)OCc1ccc(CCCOCCOCC(=O)N[C@H](C(=O)N2C[C@H](O)C[C@H]2C(=O)NCc2ccc(-c4scnc4C)cc2)C(C)(C)C)cc1)C3)c1ccc(C(F)(F)P(=O)(OCOC(=O)C(C)(C)C)OCOC(=O)C(C)(C)C)cc1 (some centres unmarked) [Compound I-37] | > 10 | 
3 | C/C(=C\C(=O)N[C@H]1CCc2cccc3c2N(C1=O)[C@H](C(=O)N[C@@H](CCC(N)=O)[C@@H](C)OCc1ccc(CCCCCOCCCc2cccc4c2n(C)c(=O)n4C2CCC(=O)NC2=O)cc1)C3)c1ccc(C(F)(F)P(=O)(OCOC(=O)C(C)(C)C)OCOC(=O)C(C)(C)C)cc1 (stereo partly drawn) [Compound I-38, [([4-[(1E)-1-[[(2S,11S)-2-[[(3S,4R)-1-carbamoyl-4-[[4-(5-[3-[1-(2,6-dioxopiperidin-3-yl)-3-methyl-2-oxo-1,3-benzodiazol-4-yl]propoxy]pentyl)phenyl]methoxy]pentan-3-yl]carbamoyl]-12-oxo-1-azatricyclo[6.4.1.0^[4,13]]trideca-4(13),5,7-trien-11-yl]carbamoyl]prop-1-en-2-yl]phenyl]difluoromethyl([(2,2-dimethylpropanoyl)oxy]methoxy)phosphoryl)oxy]methyl 2,2-dimethylpropanoate] | > 10 | 
4 | C/C(=C\C(=O)N[C@H]1CCc2cccc3c2N(C1=O)[C@H](C(=O)NC(CCC(N)=O)[C@@H](C)OCc1ccc(CCCOCCCCCOCCCc2cccc4c2n(C)c(=O)n4C2CCC(=O)NC2=O)cc1)C3)c1ccc(C(F)(F)P(=O)(OCOC(=O)C(C)(C)C)OCOC(=O)C(C)(C)C)cc1 (some centres unmarked) [Compound I-43] | > 30 | 
5 | C/C(=C\C(=O)N[C@H]1CCc2cccc3c2N(C1=O)[C@H](C(=O)NC(CCC(N)=O)[C@@H](C)OCc1ccc(CCCOCCCCCCOCCCc2cccc4c2n(C)c(=O)n4C2CCC(=O)NC2=O)cc1)C3)c1ccc(C(F)(F)P(=O)(OCOC(=O)C(C)(C)C)OCOC(=O)C(C)(C)C)cc1 (some centres unmarked) [Compound I-44] | > 30 | 
6 | C/C(=C\C(=O)N[C@H]1CCc2cccc3c2N(C1=O)[C@H](C(=O)N[C@@H](CCC(N)=O)[C@@H](C)OCc1ccc(CCCOCCOCCCc2ccc4c(c2)n(C)c(=O)n4C2CCC(=O)NC2=O)cc1)C3)c1ccc(C(F)(F)P(=O)(OCOC(=O)C(C)(C)C)OCOC(=O)C(C)(C)C)cc1 (some centres unmarked) [Compound I-54] | > 30 | 
7 | C/C(=C\C(=O)N[C@H]1CCc2cccc3c2N(C1=O)[C@H](C(=O)N[C@@H](CCC(N)=O)[C@@H](C)OCc1ccc(CCCOCCOCCOCCCc2ccc4c(c2)n(C)c(=O)n4C2CCC(=O)NC2=O)cc1)C3)c1ccc(C(F)(F)P(=O)(OCOC(=O)C(C)(C)C)OCOC(=O)C(C)(C)C)cc1 (some centres unmarked) [Compound I-55] | > 30 | 
8 | CCCC[C@H](NC(=O)/C=C(\C)c1ccc(C(F)(F)P(=O)(OCOC(=O)C(C)(C)C)OCOC(=O)C(C)(C)C)cc1)C(=O)N1C[C@H]2C[C@H]2[C@H]1C(=O)N[C@@H](CCC(N)=O)[C@@H](C)OCc1ccc(CCCNC(=O)COCCOCCCc2ccc3c(c2)n(C)c(=O)n3C2CCC(=O)NC2=O)cc1 (stereo partly drawn) [Compound I-58, [([4-[(1E)-1-[[(2S)-1-[(1R,2S,5S)-2-[[(3S,4R)-1-carbamoyl-4-[(4-[3-[2-(2-[3-[1-(2,6-dioxopiperidin-3-yl)-3-methyl-2-oxo-1,3-benzodiazol-5-yl]propoxy]ethoxy)acetamido]propyl]phenyl)methoxy]pentan-3-yl]carbamoyl]-3-azabicyclo[3.1.0]hexan-3-yl]-1-oxohexan-2-yl]carbamoyl]prop-1-en-2-yl]phenyl]difluoromethyl([(2,2-dimethylpropanoyl)oxy]methoxy)phosphoryl)oxy]methyl 2,2-dimethylpropanoate] | > 30 | 
9 | CCCC[C@H](NC(=O)/C=C(\C)c1ccc(C(F)(F)P(=O)(OCOC(=O)C(C)(C)C)OCOC(=O)C(C)(C)C)cc1)C(=O)N1C[C@H]2C[C@H]2[C@H]1C(=O)N[C@@H](CCC(N)=O)[C@@H](C)OCc1ccc(CCCNC(=O)COCCOCCOCCCc2ccc3c(c2)n(C)c(=O)n3C2CCC(=O)NC2=O)cc1 (stereo partly drawn) [Compound I-59, [([4-[(1E)-1-[[(2S)-1-[(1R,2S,5S)-2-[[(3S,4R)-1-carbamoyl-4-[[4-(3-[2-[2-(2-[3-[1-(2,6-dioxopiperidin-3-yl)-3-methyl-2-oxo-1,3-benzodiazol-5-yl]propoxy]ethoxy)ethoxy]acetamido]propyl)phenyl]methoxy]pentan-3-yl]carbamoyl]-3-azabicyclo[3.1.0]hexan-3-yl]-1-oxohexan-2-yl]carbamoyl]prop-1-en-2-yl]phenyl]difluoromethyl([(2,2-dimethylpropanoyl)oxy]methoxy)phosphoryl)oxy]methyl 2,2-dimethylpropanoate] | > 30 | 
10 | C/C(=C\C(=O)N[C@H]1CCc2cccc3c2N(C1=O)[C@H](C(=O)N[C@@H](CCC(N)=O)[C@@H](C)OCc1ccc(CCCOCCOCCOCCOCCCc2ccc4c(c2)n(C)c(=O)n4C2CCC(=O)NC2=O)cc1)C3)c1ccc(C(F)(F)P(=O)(OCOC(=O)C(C)(C)C)OCOC(=O)C(C)(C)C)cc1 (some centres unmarked) [Compound I-60] | > 30 | 
11 | C/C(=C\C(=O)N[C@H]1CCc2cccc3c2N(C1=O)[C@H](C(=O)N[C@@H](CCC(N)=O)[C@@H](C)OCc1ccc(CCCNC(=O)COCCCc2ccc4c(c2)n(C)c(=O)n4C2CCC(=O)NC2=O)cc1)C3)c1ccc(C(F)(F)P(=O)(OCOC(=O)C(C)(C)C)OCOC(=O)C(C)(C)C)cc1 (some centres unmarked) [Compound I-68] | > 30 | 
12 | C/C(=C\C(=O)N[C@H]1CCc2cccc3c2N(C1=O)[C@H](C(=O)N[C@@H](CCC(N)=O)[C@@H](C)OCc1ccc(CCCCCC(=O)N[C@H](C(=O)N2C[C@H](O)C[C@H]2C(=O)NCc2ccc(-c4scnc4C)cc2)C(C)(C)C)cc1)C3)c1ccc(C(F)(F)P(=O)(OCOC(=O)C(C)(C)C)OCOC(=O)C(C)(C)C)cc1 [Compound I-71] | < 30 | 
13 | C/C(=C\C(=O)N[C@H]1CCc2cccc3c2N(C1=O)[C@H](C(=O)N[C@@H](CCC(N)=O)[C@@H](C)OCc1ccc(CCCCC(=O)N[C@H](C(=O)N2C[C@H](O)C[C@H]2C(=O)NCc2ccc(-c4scnc4C)cc2)C(C)(C)C)cc1)C3)c1ccc(CP(=O)(O)O)cc1 [Compound I-80, diammonium [4-[(1E)-1-[[(2S,11S)-2-[[(3S,4R)-1-carbamoyl-4-[[4-(4-[[(2S)-1-[(2S,4R)-4-hydroxy-2-([[4-(4-methyl-1,3-thiazol-5-yl)phenyl]methyl]carbamoyl)pyrrolidin-1-yl]-3,3-dimethyl-1-oxobutan-2-yl]carbamoyl]butyl)phenyl]methoxy]pentan-3-yl]carbamoyl]-12-oxo-1-azatricyclo[6.4.1.0^[4,13]]trideca-4(13),5,7-trien-11-yl]carbamoyl]prop-1-en-2-yl]phenyl]methylphosphonate] |  | > 30
14 | Cc1ncsc1-c1ccc(CNC(=O)[C@@H]2C[C@@H](O)CN2C(=O)[C@@H](NC(=O)CCCCc2ccc(CO[C@H](C)[C@H](CCC(N)=O)NC(=O)[C@@H]3Cc4cccc5c4N3C(=O)[C@@H](NC(=O)c3cc4cc(CP(=O)(O)O)ccc4[nH]3)CC5)cc2)C(C)(C)C)cc1 [Compound I-82, diammonium (2-[[(2S,11S)-2-[[(3S,4R)-1-carbamoyl-4-[[4-(4-[[(2S)-1-[(2S,4R)-4-hydroxy-2-([[4-(4-methyl-1,3-thiazol-5-yl)phenyl]methyl]carbamoyl)pyrrolidin-1-yl]-3,3-dimethyl-1-oxobutan-2-yl]carbamoyl]butyl)phenyl]methxy]opentan-3-yl]carbamoyl]-12-oxo-1-azatricyclo[6.4.1.0^[4,13]]trideca-4(13),5,7-trien-11-yl]carbamoyl]-1H-indo1-5-yl)methylphosphonate] |  | > 30
